Assay results taken from paper PMC3747139 (PLoS ONE, 2013).
Like-named read-outs stand apart in the source and are kept apart here.

What was measured:
B16F10 cells = assay: MTT assay; assay type: cell-based, human; conditions: Mus musculus, B16-F10, B16F10 cells, 24 h and 48 h, read-out: half maximal inhibitory concentration (IC50)
Procedure: Normal human cell lines (CRL-2115, CRL-2120) as well as human cancer cell lines (NCM-460, He La, MCF-7, B16F10 and A549) were cultured according to the supplier's recommendations. To study the cytotoxicity of the ligands, after 80% confluence, cells were trypsinized with 0.1% trypsin-EDTA and harvested by centrifugation at 500× g. Serial dilutions of cells were made from 1×10^6 to 1×10^3 cells per ml. The cells were seeded in triplicate in a 96 well plate. The suspended cells were treated with 50 µM, 100 µM, 150 µM, 200 µM, 250 µM and 300 µM of each ligand, at two different time points (24 h and 48 h). Normal as well as tumor cells to which no ligand was added served as control. After incubation, MTT (100 µl, 5 mg mL^−1) solution was added to each well and the cell viability was determined by measuring the ability of cells to transform MTT to a purple coloured formazan dye. The absorbance of samples at 570 nm was measured using a UV-Visible spectrophotometer. Percentage of viable cells was calculated using the formula given below. [drawing 1] Where the OD570 (sample) corresponds to absorbance obtained from the wells treated with ligands and the OD570 (control) represents the absorbance from the wells in which no ligand was added.

telomerase = system: telomerase; set-up: method as in PMID 10741725; conditions: cited from earlier work
[1] = system: telomerase reverse transcriptase (TERT); assay: Western blot of telomerase expression in tumor tissues; assay type: in vivo, C57BL6/J mice; conditions: tumor tissue of tumor-induced mice, 216 h of treatment
Procedure: Western blot analysis was carried out to study the expression of telomerase in ligand treated as well as untreated tissues of tumor-induced mice. Total proteins were extracted from the tumor tissues into solubilisation buffer (7 M urea, 2 M thiourea, 4% CHAPS, 18 mM Tris–HCl, 14 mM Trizma base, 2 tablets EDTA protease inhibitor, 0.2% Triton-X, 50 mM DTT) following homogenization and sonication. Extracted proteins were quantified against BSA standard using an Amido black assay method. 40 µg of total protein obtained from different time points (48 h, 72 h and 216 h) were electrophoresed on a 10% SDS-PAGE and transferred onto a PVDF membrane using wet-transfer method. Immunoblot analysis of the telomerase reverse transcriptase (TERT) expression was performed using anti-TERT antibody (Pierce, Thermo Scientific) as primary antibody and anti-rabbit HP conjugated secondary antibodies (Pierce, Thermo Scientific). The immuno- blots were scanned using the ECL detection method to estimate the telomerase expression levels in the tissues of tumor-induced mice. The endogenous β-actin expression level was considered as control.

B16F10 melanoma cells = assay: Preclinical study: tumor size in tumor-induced mice; assay type: in vivo; conditions: C57BL6/J mice with B16F10 tumor; 200 µM L1, 125 µM L2, 50 µM L3; end of experiment
Procedure: C57BL6/J mice were used from the animal house facility located at CCMB (Hyderabad, India). All animal experimental studies were carried out in strict accordance with the recommendations in the guide for the care and use of laboratory animals of Centre for Cellular and Molecular Biology (CCMB). All the animal experimental protocols were approved by the Institutional Animal Ethical Committee (IAEC) of Centre for Cellular and Molecular Biology (CCMB with Permit number: CPCSEA 20/1999, Ministry of Environment and Forest, Government of India).The protocol was approved by the Institutional Animal Ethical Committee (IAEC) of CCMB (Protocol number: IAEC 16/2012). All the surgery was performed under sodium pentobarbital anaesthesia, and all efforts were made to minimize suffering. C57BL6/J mice, 6–8 weeks old, were subcutaneously injected with 2×10^5 B16F10 melanoma cells, in the […] region. After the tumor attained a size of 500–1000 mm^3 (≈9 days following cancer cell implantation), mice were grouped and treated as follows.
Group (i) was treated with vehicle control (4 mice), group (ii) with 200 µM of L1 (4 mice), group (iii) with 125 µM of L2 (4 mice) and group (iv) with 50 µM of L3 (4 mice). These experiments were repeated thrice and mean values were considered. Size of tumor was measured every day at a fixed time. The tumor sizes were calculated using the formula (0.5 ab^2), where ‘a’ was the largest dimension and ‘b’ was the smallest dimension of the tumor. The experiment was terminated when the average tumor volume of the control/treated group was 10000–12000 mm^3.

[2] = Cell count assay (trypan blue); assay type: cell-based; set-up: concentration or dose not given beside the values; conditions: human; for viability at 24 h: read-out: Number of viable cells after 24 h of ligand treatment; for viability at 48 h: read-out: Number of viable cells after 48 h of ligand treatment
Procedure: Normal and tumor cell lines were seeded at 20000–40000 cells/cm^2 with 0.2 mL/cm^2 media and incubated for 48 h at 37°C, 6% CO2, 95% relative humidity. […] After 24 h and 48 h of incubation, cells were washed with 300 µl PBS or 0.02% EDTA, trypsinized, followed by harvesting at 37°C. 200 µl cell suspension was transferred into 1.5 ml microcentrifuge tube. To the cell suspension, 300 µl PBS followed by 500 µl of 0.4% trypan blue solution was added. To get the homogenised solution, the microcentrifuge tube was gently tapped for 5 min, 20 µl of cell suspension was loaded in to a chamber of the haemocytometer.

QF DNA = assay: Stop assay (inhibition of in vitro DNA synthesis) with QF DNA; assay type: biochemical; conditions: for ligand concentration range of complete / maximum inhibition of DNA synthesis: 5 µM QF DNA; for percentage of DNA synthesis inhibition with QF DNA: at the respective half maximal inhibitory concentration; for Ki: competitive inhibition against dNTPs, Taq polymerase, read-out: inhibition constant (Ki), Cheng-Prusoff equation
Procedure: The G-quadruplex structure forming region of QF oligonucleotide is shown in bold letters.
To the PCR reaction mixture (25 µl) containing 10 mM Tris-HCl, pH 8.3, with 50 mM KCl, 1.5 mM Mg(OAc)2, 5 µM of each oligonucleotide, 1 mM dNTPs, 5 units of Taq polymerase, L1, L2, L3 were added at various concentrations (50 µM, 100 µM, 150 µM, 200 µM), and PCR reactions were performed. PCR mixture without any ligand was considered as control. The primers were 5′ end-labelled with [γ-^32P] ATP using 1 µl of polynucleotide kinase and 5 µl of 10× kinase buffer and the contents were incubated at 37°C for 5 min. Stop assay was performed using an ABI thermal cycler. Initial denaturation was done at 94°C for 3 min, followed by 20 repeated cycles each having 94°C for 30 sec, 58°C for 30 sec, and 72°C for 30 sec. After PCR, 5 µl of the amplified product was loaded on a 12% non-denaturing polyacrylamide gel with 1×TBE. The in vitro DNA synthetic band intensity was measured using Bio Rad Gel Doc XR+system (USA). The band intensity of the PCR product obtained with no ligand was taken as control for all the quadruplex forming DNA samples (QF DNA). Percentage of DNA synthesis inhibition was calculated using equation 1, whereas, inhibition constant, Ki (using Cheng-Prusoff equation) for each ligand was calculated by using equation 2. [drawing 2] (1)

[3] = CRL-2115 cells (normal cell line), CRL-2115, 24 h
[4] = CRL-2115 cells (normal cell line), CRL-2115, 48 h
[5] = CRL-2120 cells (normal cell line), CRL-2120, 24 h
[6] = CRL-2120 cells (normal cell line), CRL-2120, 48 h
[7] = NCM-460 cells (normal cell line), NCM-460, 24 h
[8] = NCM-460 cells (normal cell line), NCM-460, 48 h

Compound | IC50 (B16F10 cells) | concentration reported to inhibit telomerase (telomerase) | percentage of reduction of telomerase expression [1] | tumor size (B16F10 melanoma cells) | viability at 24 h [2, 3] | viability at 48 h [2, 4] | viability at 24 h [2, 5] | viability at 48 h [2, 6] | viability at 24 h [2, 7] | viability at 48 h [2, 8] | ligand concentration range of complete / maximum inhibition of DNA synthesis (QF DNA) | percentage of DNA synthesis inhibition with QF DNA (QF DNA) | Ki (QF DNA)
Cc1cn([C@H]2C[C@H](N=[N+]=[N-])[C@@H](CO)O2)c(=O)[nH]c1=O [Ligand L1, 1-(4-azido 5-(hydroxylmethyl)tetrahydrofuran-2-yl)-5-methyl pyrimidi-ne-2,4(1H,3H)-dione, reference compound] | ~200 µM | around 200 µM | 80% | 6000–8000 mm^3 | 80 to 90% | 50 to 60% | 80 to 90% | 50 to 60% | 80 to 90% | 50 to 60% | 150 to 200 µM | 84% | 2940 nM
Cc1cn([C@H]2C[C@H](n3cc(-c4ccccc4)nn3)[C@@H](CO)O2)c(=O)[nH]c1=O [Ligand L2] | ~125 µM |  | 88% | 6000–8000 mm^3 | 80 to 90% | 50 to 60% | 80 to 90% | 50 to 60% | 80 to 90% | 50 to 60% | 150 to 200 µM | 91% | 1840 nM
Cc1cn([C@H]2C[C@H](n3cc(-c4ccc(Cl)cc4)nn3)[C@@H](CO)O2)c(=O)[nH]c1=O [Ligand L3, 1-(4-(4-(4-chlorophenly)-1H-1,2,3-triazole-1-yl)-5-(hydroxymethyl)tetrahydrofuran-2-yl)-5-methylpyrimidine-2,3(1H,3H)-dione] | 50 µM |  | 95% | ≈ 4500 mm^3 | 80 to 90% | 50 to 60% | 80 to 90% | 50 to 60% | 80 to 90% | 50 to 60% | 50 to 100 µM | 94% | 735 nM
